The values that follow come from ChEMBL document CHEMBL1155693, “Structures of five components of the actinomycin Z complex from Streptomyces fradiae, two of which contain 4-chlorothreonine” (2000).

What all share (type): functional
One assay relates to Bacillus subtilis. Briefly: Antibacterial activity against Bacillus subtilis ATCC 6051 after 18 hrs. Conditions: ATCC 6051, 18 h.
Assay [1] can be described thus: Cytotoxicity against human HMO2 cells after 48 hrs by sulforhodamine assay. Conditions: HMO2, 48 h; for CC50: read-out: LC50 (the source's name).
The subject of another assay is HepG2. Put plainly: Cytotoxicity against human HepG2 cells after 48 hrs by sulforhodamine assay. Conditions: HepG2, 48 h.
A further assay relates to MCF7. Put plainly: Cytotoxicity against human MCF7 cells after 48 hrs by sulforhodamine assay. Conditions: MCF7, 48 h; for CC50: read-out: LC50 (the source's name).

Converted amounts (≈) assume the structure as drawn. *1 amine or outer side, *2 acyl side, *3 side chain or, on linkers, in order; H or OH if unused. Where a SMILES comes first, the peptide text is derived from it. Bridges are numbered along the chain shown (N, C = ends). Roman numbers before positions name the chains, in order. [ ]: non-standard residue; d: D form. Actinocin(1to9) = Cc1c2oc3c(C)ccc(C(=O)[*:2])c3nc-2c(C(=O)[*:1])c(N)c1=O; NMeV = CN[C@H](C(=O)O)C(C)C; Sar = CNCC(=O)O Bounds are passed on as bounds.

For `Cc1c2oc3c(C)ccc(C(=O)N[C@@H]4C(=O)N[C@H](C(C)C)C(=O)N5[C@@H](C)CC[C@H]5C(=O)N(C)CC(=O)N(C)[C@@H](C(C)C)C(=O)O[C@@H]4C)c3nc-2c(C(=O)N[C@@H]2C(=O)N[C@H](C(C)C)C(=O)N3[C@@H](C)C(=O)C[C@H]3C(=O)N(C)CC(=O)N(C)[C@@H](C)C(=O)O[C@H]2CCl)c(N)c1=O` [ACTINOMYCIN Z5], the MIC against Bacillus subtilis worked out at 0.78 µg/mL (≈ 0.598 µM). Further, in assay [1], the GI50 was below 100 nM, the TGI is below 100 nM and the CC50 came out at 500 nM. In the assay with HepG2, this molecule returned a 50% growth inhibitory concentration (GI50) of 1500 nM, a median lethal concentration (LC50) above 50000 nM and a TGI of 10000 nM. In the assay on MCF7, the 50% growth inhibitory concentration (GI50) is below 100 nM, the TGI is 120 nM and the CC50 came out at 500 nM.

`Cc1c2oc3c(C)ccc(C(=O)N[C@@H]4C(=O)N[C@H](C(C)C)C(=O)N5[C@H](C(=O)N(C)CC(=O)N(C)[C@@H](C(C)C)C(=O)O[C@@H]4C)[C@@H](O)C[C@@H]5C)c3nc-2c(C(=O)N[C@@H]2C(=O)N[C@H](C(C)C)C(=O)N3[C@@H](C)C(=O)C[C@H]3C(=O)N(C)CC(=O)N(C)[C@@H](C)C(=O)O[C@H]2CCl)c(N)c1=O` [ACTINOMYCIN Z3] had a minimum inhibitory concentration (MIC) against Bacillus subtilis of 0.2 µg/mL (≈ 0.152 µM). For the same molecule, in assay [1], the concentration for 50% growth inhibition (GI50) is below 100 nM, the total growth inhibition concentration (TGI) is below 100 nM and the CC50 turned out to be 280 nM. Besides, in the assay with HepG2, the GI50 was below 100 nM, the 50% lethal concentration (LC50) is above 50000 nM and the concentration for total growth inhibition (TGI) came out at 1400 nM. Further, in the assay with MCF7, the GI50 was below 100 nM, the TGI is below 100 nM and the CC50 came out at 500 nM.

In the case of `Cc1c2oc3c(C)ccc(C(=O)N[C@@H]4C(=O)N[C@H](C(C)C)C(=O)N5[C@H](C(=O)N(C)CC(=O)N(C)[C@@H](C(C)C)C(=O)O[C@@H]4C)[C@@H](O)C[C@@H]5C)c3nc-2c(C(=O)N[C@@H]2C(=O)N[C@H](C(C)C)C(=O)N3[C@@H](C)C(=O)C[C@H]3C(=O)N(C)CC(=O)N(C)[C@@H](C)C(=O)O[C@H]2CO)c(N)c1=O` [ACTINOMYCIN Z1], the lowest concentration to inhibit growth with Bacillus subtilis (MIC) was 12.5 µg/mL (≈ 9.6 µM). For the same molecule, in assay [1], growth was halved (GI50) at 750 nM, net growth stopped (TGI) at 5800 nM and the CC50 is above 50000 nM. In addition, in the assay with HepG2, it took 950 nM to inhibit growth by half (GI50), the median lethal concentration (LC50) was above 50000 nM and the concentration for total growth inhibition (TGI) turned out to be 5500 nM. In addition, in the assay with MCF7, the GI50 was below 500 nM, the total growth inhibition concentration (TGI) was above 50000 nM and the CC50 is above 50000 nM.

In the assay with Bacillus subtilis, `Cc1c2oc3c(C)ccc(C(=O)N[C@@H]4C(=O)N[C@H](C(C)C)C(=O)N5CCC[C@H]5C(=O)N(C)CC(=O)N(C)[C@@H](C(C)C)C(=O)O[C@@H]4C)c3nc-2c(C(=O)N[C@@H]2C(=O)N[C@H](C(C)C)C(=O)N3CCC[C@H]3C(=O)N(C)CC(=O)N(C)[C@@H](C(C)C)C(=O)O[C@@H]2C)c(N)c1=O` [DACTINOMYCIN] (I: T[dV]P[Sar][NMeV] / II: T[dV]P[Sar][NMeV]; ester I:1-I:C, II:1-II:C; linker I:N-II:N via Actinocin(1to9)) had an MIC of 0.78 µg/mL (≈ 0.621 µM). Also, in assay [1], the concentration for 50% growth inhibition (GI50) was 300 nM, the TGI is 800 nM and the CC50 is above 50000 nM. In the assay on HepG2, this molecule displayed a GI50 of 1000 nM and a total growth inhibition concentration (TGI) of 4000 nM. For the same molecule, in the assay on MCF7, growth was halved (GI50) at 500 nM, total growth inhibition (TGI) required 2200 nM and the CC50 is above 50000 nM.
